# Values of other authors in patent publication EP0086468A2, “Oral anti-diabetic preparation” (HOECHST UK LIMITED, priority 1982, dated 1983).
# Test system: plasma glucose
# Settings: intravenous bolus injection, published data
smiles,measurement,value
COc1ccc(Cl)cc1C(=O)NCCc1ccc(S(=O)(=O)NC(=O)NC2CCCCC2)cc1 [glibenclamide],"nadir in plasma glucose levels, time after injection",about 40 minutes
